Measurements from patent publication US20020137929A1, “1 - (3-heterocyclylphenyl) isothiourea, -isourea, -guanidine and -amidine herbicidal agents” (Intellectual Property Department, BASF Aktiengesellschaft, priority 1998, published 2002).

Experiments:
CYPSE (Flatsedge) [1] = assay: Postemergence weed control under flooded paddy conditions; type: in vivo, Cyperus serotinus; conditions: postemergence weeds, rated 3 to 4 weeks after treatment
In short: (§1)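 Weeds 3 to 5 cm tall and rice seedlings at the 1.5 to 2.5 leaf stage were flooded, with water held 1.5 to 3 cm above the soil. Compounds in 50/50 v/v aqueous/acetone went into the flood water at about 0.0313 to 0.500 kg/ha. Visual 0-9 ratings versus control were made 3 to 4 weeks later.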

AMBEL (Ragweed, Common) [2] = assay: Preemergence herbicidal evaluation; type: in vivo, Ambrosia artemisifolia; conditions: rated 4-5 weeks after treatment; for AMBEL rating: preemergence, 0-9 scale
In short: (§2)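 Rating at 4–5 wk post-spray on a 0–9 visual scale vs control. Application: aqueous acetone, ~0.0156–0.500 kg/ha, to soil surface after seeding, preemergence.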

CASOB (Sicklepod) = assay: Preemergence herbicidal evaluation; type: in vivo, Cassia obtusifolia; conditions: rated 4-5 weeks after treatment; for CASOB rating: preemergence, 0-9 scale
In short: as §2

CYPIR (Rice Flatsedge) = assay: Postemergence weed control under flooded paddy conditions; type: in vivo, Cyperus iria; conditions: postemergence weeds, rated 3 to 4 weeks after treatment
In short: as §1

ZEAMX (Corn, Field) = assay: Postemergence herbicidal evaluation; type: in vivo, Zea mays; conditions: for ZEAMX herbicidal rating: postemergence
In short: (§3)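 Each compound, dispersed in an acetone/water mix (50/50) carrying 0.5% TWEEN 20, is nozzle-sprayed at 40 psi on approximately two-week-old seedlings at about 0.0156–0.500 kg/ha. Plants are assessed 4–5 weeks afterward on a 0–9 scale relative to control; duplicate tests are averaged.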

ORYSAT (Rice, Tebonnet) = assay: Postemergence herbicidal evaluation; type: in vivo, Oryza sativa, (L.) Tebonnet; conditions: for ORYSAT herbicidal rating: postemergence
In short: as §3

[3] = test system: CHEAL (Lambsquarters, Common); assay: Postemergence herbicidal evaluation; type: in vivo, Chenopodium album; conditions: for CHEAL herbicidal rating: postemergence
In short: as §3

CYPSE (Flatsedge) [4] = assay: Preemergence weed control under flooded paddy conditions; type: in vivo, Cyperus serotinus; conditions: rated 3-4 weeks after treatment
In short: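 Greenhouse paddy assay. Acetone/water (50/50 v/v) solutions dosed into flood water, equivalent to about 0.0313 to 0.500 kg/ha active ingredient, over seeds planted 0.5 cm deep in silt loam. Score: 0-9 visual, based on stand, vigor, malformation, size and chlorosis, 3 to 4 weeks after treatment.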

GALAP (Galium) = assay: Preemergence herbicidal evaluation; type: in vivo, Galium aparine; conditions: rated 4-5 weeks after treatment; for GALAP rating: preemergence, 0-9 scale
In short: as §2

AMBEL (Ragweed, Common) [5] = assay: Postemergence herbicidal evaluation; type: in vivo, Ambrosia artemisifolia; conditions: for AMBEL herbicidal rating: postemergence
In short: as §3

ECHCG (Barnyardgrass) = assay: Postemergence herbicidal evaluation; type: in vivo, Echinochloa crus-galli; conditions: for ECHCG herbicidal rating: postemergence
In short: as §3

[6] = test system: CHEAL (Lambsquarters, Common); assay: Preemergence herbicidal evaluation; type: in vivo, Chenopodium album; conditions: rated 4-5 weeks after treatment; for CHEAL rating: preemergence, 0-9 scale
In short: as §2

[7] = test system: GLXMAW (Soybean, Williams); assay: Postemergence herbicidal evaluation; type: in vivo, Glycine max, (L.) Merr. cv Williams; conditions: for GLXMAW herbicidal rating: postemergence
In short: as §3

ABUTH (Velvetleaf) = assay: Postemergence herbicidal evaluation; type: in vivo, Abutilon theophrasti; conditions: for ABUTH herbicidal rating: postemergence
In short: as §3

Cn1c(C(F)(F)F)cc(=O)n(-c2cc(/N=C3/SC(CC(=O)O)C(=O)N3CC(=O)O)c(Cl)cc2F)c1=O (stereo not shown) [Compound 61, 2-{{2-Chloro-5-[3,6-dihydro-3-methyl-2,6-dioxo-4-(trifluoromethyl)-1(2H)-pyrimidinyl]-4-fluorophenyl}imino}-4-oxo-3,5-thiazolidinediacetic acid]
Herbicidal rating CYPSE (CYPSE (Flatsedge) [1]; Rate 0.2500 kg/ha): 0.0 | Preemergence herbicidal rating AMBEL (AMBEL (Ragweed, Common) [2]; rate 0.1250 kg/ha): 0.0 | Preemergence herbicidal rating AMBEL (AMBEL (Ragweed, Common) [2]; rate 0.2500 kg/ha): 0.0 | Preemergence herbicidal rating CASOB (CASOB (Sicklepod); rate 0.1250 kg/ha): 0.0 | Preemergence herbicidal rating CASOB (CASOB (Sicklepod); rate 0.2500 kg/ha): 1.0 | Herbicidal rating CYPIR (CYPIR (Rice Flatsedge); Rate 0.2500 kg/ha): 0.0 | Postemergence herbicidal rating ZEAMX (ZEAMX (Corn, Field); Rate 0.0158 kg/ha): 2.0 | Postemergence herbicidal rating ZEAMX (ZEAMX (Corn, Field); Rate 0.0315 kg/ha): 2.0 | Postemergence herbicidal rating ZEAMX (ZEAMX (Corn, Field); Rate 0.0630 kg/ha): 3.0 | Postemergence herbicidal rating ORYSAT (ORYSAT (Rice, Tebonnet); Rate 0.0158 kg/ha): 0.5 | Postemergence herbicidal rating ORYSAT (ORYSAT (Rice, Tebonnet); Rate 0.0315 kg/ha): 0.5 | Postemergence herbicidal rating ORYSAT (ORYSAT (Rice, Tebonnet); Rate 0.0630 kg/ha): 1.5 | Postemergence herbicidal rating CHEAL ([3]; Rate 0.0158 kg/ha): 0.0 | Postemergence herbicidal rating CHEAL ([3]; Rate 0.0315 kg/ha): 0.0 | Postemergence herbicidal rating CHEAL ([3]; Rate 0.0630 kg/ha): 0.0 | CYPSE herbicidal effect rating (CYPSE (Flatsedge) [4]; 0.2500 kg/ha): 0.0 | Preemergence herbicidal rating GALAP (GALAP (Galium); rate 0.1250 kg/ha): 0.0 | Preemergence herbicidal rating GALAP (GALAP (Galium); rate 0.2500 kg/ha): 0.0 | Postemergence herbicidal rating AMBEL (AMBEL (Ragweed, Common) [5]; Rate 0.0158 kg/ha): 0.0 | Postemergence herbicidal rating AMBEL (AMBEL (Ragweed, Common) [5]; Rate 0.0315 kg/ha): 0.0 | Postemergence herbicidal rating AMBEL (AMBEL (Ragweed, Common) [5]; Rate 0.0630 kg/ha): 0.0 | Postemergence herbicidal rating ECHCG (ECHCG (Barnyardgrass); Rate 0.0158 kg/ha): 0.0 | Postemergence herbicidal rating ECHCG (ECHCG (Barnyardgrass); Rate 0.0315 kg/ha): 0.0 | Postemergence herbicidal rating ECHCG (ECHCG (Barnyardgrass); Rate 0.0630 kg/ha): 0.0 | Preemergence herbicidal rating CHEAL ([6]; rate 0.1250 kg/ha): 7.0 | Preemergence herbicidal rating CHEAL ([6]; rate 0.2500 kg/ha): 9.0 | Postemergence herbicidal rating GLXMAW ([7]; Rate 0.0158 kg/ha): 2.0 | Postemergence herbicidal rating GLXMAW ([7]; Rate 0.0315 kg/ha): 3.0 | Postemergence herbicidal rating GLXMAW ([7]; Rate 0.0630 kg/ha): 4.0 | Postemergence herbicidal rating ABUTH (ABUTH (Velvetleaf); Rate 0.0158 kg/ha): 0.0 | Postemergence herbicidal rating ABUTH (ABUTH (Velvetleaf); Rate 0.0315 kg/ha): 0.0 | Postemergence herbicidal rating ABUTH (ABUTH (Velvetleaf); Rate 0.0630 kg/ha): 0.0

CCOC(=O)CN1C(=O)C(CC(=O)NOC)SC1=Nc1cc(-n2c(=O)cc(C(F)(F)F)n(C)c2=O)c(F)cc1Cl (stereo not shown) [Compound 83, Ethyl 2-{{2-chloro-5-[3,6-dihydro-3-methyl-2,6-dioxo-4-(trifluoromethyl)-1(2H)-pyrimidinyl]-4-fluorophenyl}imino}-5-[(methoxycarbamoyl)methyl]-4-oxo-3-thiazolidineacetate]
Herbicidal rating CYPSE (CYPSE (Flatsedge) [1]; Rate 0.0313 kg/ha): 0.0 | Herbicidal rating CYPSE (CYPSE (Flatsedge) [1]; Rate 0.1250 kg/ha): 3.0 | Herbicidal rating CYPSE (CYPSE (Flatsedge) [1]; Rate 0.2500 kg/ha): 5.0 | AMBEL rating (AMBEL (Ragweed, Common) [2]; 0.0156 kg/ha): 0.0 | AMBEL rating (AMBEL (Ragweed, Common) [2]; 0.0313 kg/ha): 0.0 | AMBEL rating (AMBEL (Ragweed, Common) [2]; 0.0625 kg/ha): 0.0 | AMBEL rating (AMBEL (Ragweed, Common) [2]; 0.1250 kg/ha): 9.0 | AMBEL rating (AMBEL (Ragweed, Common) [2]; 0.2500 kg/ha): 9.0 | AMBEL rating (AMBEL (Ragweed, Common) [2]; 0.5000 kg/ha): 9.0 | CASOB rating (CASOB (Sicklepod); 0.0156 kg/ha): 0.0 | CASOB rating (CASOB (Sicklepod); 0.0313 kg/ha): 0.0 | CASOB rating (CASOB (Sicklepod); 0.0625 kg/ha): 0.0 | CASOB rating (CASOB (Sicklepod); 0.1250 kg/ha): 0.0 | CASOB rating (CASOB (Sicklepod); 0.2500 kg/ha): 3.0 | CASOB rating (CASOB (Sicklepod); 0.5000 kg/ha): 3.0 | Herbicidal rating CYPIR (CYPIR (Rice Flatsedge); Rate 0.0313 kg/ha): 5.0 | Herbicidal rating CYPIR (CYPIR (Rice Flatsedge); Rate 0.0625 kg/ha): 6.0 | Herbicidal rating CYPIR (CYPIR (Rice Flatsedge); Rate 0.1250 kg/ha): 6.0 | Herbicidal rating CYPIR (CYPIR (Rice Flatsedge); Rate 0.2500 kg/ha): 7.0 | ZEAMX herbicidal rating (ZEAMX (Corn, Field); rate 0.0156 kg/ha): 4.5 | ZEAMX herbicidal rating (ZEAMX (Corn, Field); rate 0.0313 kg/ha): 7.5 | ZEAMX herbicidal rating (ZEAMX (Corn, Field); rate 0.0625 kg/ha): 7.5 | ZEAMX herbicidal rating (ZEAMX (Corn, Field); rate 0.1250 kg/ha): 7.5 | ORYSAT herbicidal rating (ORYSAT (Rice, Tebonnet); rate 0.0156 kg/ha): 1.5 | ORYSAT herbicidal rating (ORYSAT (Rice, Tebonnet); rate 0.0313 kg/ha): 2.5 | ORYSAT herbicidal rating (ORYSAT (Rice, Tebonnet); rate 0.0625 kg/ha): 3.0 | ORYSAT herbicidal rating (ORYSAT (Rice, Tebonnet); rate 0.1250 kg/ha): 3.0 | CHEAL herbicidal rating ([3]; rate 0.0156 kg/ha): 5.0 | CHEAL herbicidal rating ([3]; rate 0.0313 kg/ha): 7.0 | CHEAL herbicidal rating ([3]; rate 0.0625 kg/ha): 9.0 | CHEAL herbicidal rating ([3]; rate 0.1250 kg/ha): 9.0 | CYPSE herbicidal effect rating (CYPSE (Flatsedge) [4]; 0.0313 kg/ha): 0.0 | CYPSE herbicidal effect rating (CYPSE (Flatsedge) [4]; 0.1250 kg/ha): 3.0 | CYPSE herbicidal effect rating (CYPSE (Flatsedge) [4]; 0.2500 kg/ha): 5.0 | GALAP rating (GALAP (Galium); 0.0156 kg/ha): 0.0 | GALAP rating (GALAP (Galium); 0.0313 kg/ha): 0.0 | GALAP rating (GALAP (Galium); 0.0625 kg/ha): 0.0 | GALAP rating (GALAP (Galium); 0.1250 kg/ha): 0.0 | GALAP rating (GALAP (Galium); 0.2500 kg/ha): 9.0 | GALAP rating (GALAP (Galium); 0.5000 kg/ha): 9.0 | AMBEL herbicidal rating (AMBEL (Ragweed, Common) [5]; rate 0.0156 kg/ha): 9.0 | AMBEL herbicidal rating (AMBEL (Ragweed, Common) [5]; rate 0.0313 kg/ha): 9.0 | AMBEL herbicidal rating (AMBEL (Ragweed, Common) [5]; rate 0.0625 kg/ha): 9.0 | AMBEL herbicidal rating (AMBEL (Ragweed, Common) [5]; rate 0.1250 kg/ha): 9.0 | ECHCG herbicidal rating (ECHCG (Barnyardgrass); rate 0.0156 kg/ha): 0.0 | ECHCG herbicidal rating (ECHCG (Barnyardgrass); rate 0.0313 kg/ha): 2.0 | ECHCG herbicidal rating (ECHCG (Barnyardgrass); rate 0.0625 kg/ha): 4.0 | ECHCG herbicidal rating (ECHCG (Barnyardgrass); rate 0.1250 kg/ha): 9.0 | CHEAL rating ([6]; 0.0156 kg/ha): 9.0 | CHEAL rating ([6]; 0.0313 kg/ha): 9.0 | CHEAL rating ([6]; 0.0625 kg/ha): 9.0 | CHEAL rating ([6]; 0.1250 kg/ha): 9.0 | CHEAL rating ([6]; 0.2500 kg/ha): 9.0 | CHEAL rating ([6]; 0.5000 kg/ha): 9.0 | GLXMAW herbicidal rating ([7]; rate 0.0156 kg/ha): 4.5 | GLXMAW herbicidal rating ([7]; rate 0.0313 kg/ha): 6.5 | GLXMAW herbicidal rating ([7]; rate 0.0625 kg/ha): 8.0 | GLXMAW herbicidal rating ([7]; rate 0.1250 kg/ha): 8.5 | ABUTH herbicidal rating (ABUTH (Velvetleaf); rate 0.0156 kg/ha): 9.0 | ABUTH herbicidal rating (ABUTH (Velvetleaf); rate 0.0313 kg/ha): 9.0 | ABUTH herbicidal rating (ABUTH (Velvetleaf); rate 0.0625 kg/ha): 9.0 | ABUTH herbicidal rating (ABUTH (Velvetleaf); rate 0.1250 kg/ha): 9.0
